{"source": "paper PMC7206119", "about": "“RIP1 inhibition blocks inflammatory diseases but not tumor growth or metastases” (Cell Death and Differentiation, 2019)", "test_in_all_cases": "biochemical", "design_in_all_cases": "DiscoverX kinase panel, active-site competition binding (KINOMEscan type), percent of control at one concentration", "conditions_in_all_cases": "competition binding, percent of control", "key": {"TIE2": {"biological_target": "T1, TIE2 (Homo sapiens, UniProt Q02763)", "T1 construct": "gene TEK"}, "PIK3CB": {"biological_target": "PIK3CB (Homo sapiens, UniProt P42338)"}, "ABL1-nonphosphorylated": {"biological_target": "T2, ABL1-nonphosphorylated (Homo sapiens, UniProt P00519)", "T2 construct": "nonphosphorylated"}, "BLK": {"biological_target": "BLK (Homo sapiens, UniProt P51451)"}, "RET(M918T)": {"biological_target": "RET(M918T) (Homo sapiens, UniProt P07949, M918T)", "sequence (P07949 whole entry M918T)": "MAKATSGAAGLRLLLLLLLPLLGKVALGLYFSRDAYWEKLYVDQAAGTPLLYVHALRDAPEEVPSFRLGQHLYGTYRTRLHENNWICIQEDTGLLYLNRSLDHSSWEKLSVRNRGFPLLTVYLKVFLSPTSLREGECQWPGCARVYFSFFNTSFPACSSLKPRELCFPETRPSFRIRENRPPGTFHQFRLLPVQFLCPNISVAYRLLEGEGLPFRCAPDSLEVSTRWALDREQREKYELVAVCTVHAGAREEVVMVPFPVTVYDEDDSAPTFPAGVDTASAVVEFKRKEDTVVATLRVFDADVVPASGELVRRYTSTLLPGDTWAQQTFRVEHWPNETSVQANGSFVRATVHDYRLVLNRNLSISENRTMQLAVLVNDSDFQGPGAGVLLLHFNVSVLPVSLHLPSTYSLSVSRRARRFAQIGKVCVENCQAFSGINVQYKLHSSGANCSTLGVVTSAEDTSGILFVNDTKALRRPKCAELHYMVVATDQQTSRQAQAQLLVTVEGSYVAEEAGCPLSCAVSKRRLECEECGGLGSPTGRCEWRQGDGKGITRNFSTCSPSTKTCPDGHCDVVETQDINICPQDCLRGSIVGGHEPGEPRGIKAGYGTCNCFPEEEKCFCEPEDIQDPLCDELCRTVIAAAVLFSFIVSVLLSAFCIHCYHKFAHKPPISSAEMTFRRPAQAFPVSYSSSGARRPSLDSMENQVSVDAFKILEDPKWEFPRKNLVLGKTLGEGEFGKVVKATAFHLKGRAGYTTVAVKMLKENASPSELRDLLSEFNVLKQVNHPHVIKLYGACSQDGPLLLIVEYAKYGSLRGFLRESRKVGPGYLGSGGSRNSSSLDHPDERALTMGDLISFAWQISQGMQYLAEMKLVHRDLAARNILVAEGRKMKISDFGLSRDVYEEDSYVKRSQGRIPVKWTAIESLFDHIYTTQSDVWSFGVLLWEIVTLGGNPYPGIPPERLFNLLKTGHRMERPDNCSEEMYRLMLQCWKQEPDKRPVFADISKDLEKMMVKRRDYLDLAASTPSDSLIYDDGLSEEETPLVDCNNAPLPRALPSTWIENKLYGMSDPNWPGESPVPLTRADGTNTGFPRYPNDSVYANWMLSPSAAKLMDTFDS"}, "LATS1": {"biological_target": "LATS1 (Homo sapiens, UniProt O95835)"}, "ALK(L1196M)": {"biological_target": "ALK(L1196M) (Homo sapiens, UniProt Q9UM73, L1196M)"}, "PIK3CA(E545A)": {"biological_target": "PIK3CA(E545A) (Homo sapiens, UniProt P42336, E545A)"}, "YES": {"biological_target": "T3, YES (Homo sapiens, UniProt P07947)", "T3 construct": "gene YES1"}, "LYN": {"biological_target": "LYN (Homo sapiens, UniProt P07948)", "sequence (P07948 whole entry)": "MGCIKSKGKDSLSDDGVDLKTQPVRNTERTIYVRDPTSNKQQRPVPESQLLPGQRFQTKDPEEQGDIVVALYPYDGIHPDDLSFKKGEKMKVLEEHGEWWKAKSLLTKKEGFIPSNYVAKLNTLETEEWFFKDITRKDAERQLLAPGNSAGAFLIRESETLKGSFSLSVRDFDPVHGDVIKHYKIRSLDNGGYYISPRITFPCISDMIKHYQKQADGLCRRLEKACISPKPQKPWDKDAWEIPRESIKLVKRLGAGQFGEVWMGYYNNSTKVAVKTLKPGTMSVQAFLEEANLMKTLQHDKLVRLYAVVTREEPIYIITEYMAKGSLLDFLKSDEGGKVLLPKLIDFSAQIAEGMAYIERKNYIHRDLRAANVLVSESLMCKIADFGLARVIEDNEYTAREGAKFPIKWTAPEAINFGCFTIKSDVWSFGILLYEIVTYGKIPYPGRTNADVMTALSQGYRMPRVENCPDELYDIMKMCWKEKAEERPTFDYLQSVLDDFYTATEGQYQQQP"}, "ULK1": {"biological_target": "ULK1 (Homo sapiens, UniProt O75385)", "sequence (O75385 whole entry)": "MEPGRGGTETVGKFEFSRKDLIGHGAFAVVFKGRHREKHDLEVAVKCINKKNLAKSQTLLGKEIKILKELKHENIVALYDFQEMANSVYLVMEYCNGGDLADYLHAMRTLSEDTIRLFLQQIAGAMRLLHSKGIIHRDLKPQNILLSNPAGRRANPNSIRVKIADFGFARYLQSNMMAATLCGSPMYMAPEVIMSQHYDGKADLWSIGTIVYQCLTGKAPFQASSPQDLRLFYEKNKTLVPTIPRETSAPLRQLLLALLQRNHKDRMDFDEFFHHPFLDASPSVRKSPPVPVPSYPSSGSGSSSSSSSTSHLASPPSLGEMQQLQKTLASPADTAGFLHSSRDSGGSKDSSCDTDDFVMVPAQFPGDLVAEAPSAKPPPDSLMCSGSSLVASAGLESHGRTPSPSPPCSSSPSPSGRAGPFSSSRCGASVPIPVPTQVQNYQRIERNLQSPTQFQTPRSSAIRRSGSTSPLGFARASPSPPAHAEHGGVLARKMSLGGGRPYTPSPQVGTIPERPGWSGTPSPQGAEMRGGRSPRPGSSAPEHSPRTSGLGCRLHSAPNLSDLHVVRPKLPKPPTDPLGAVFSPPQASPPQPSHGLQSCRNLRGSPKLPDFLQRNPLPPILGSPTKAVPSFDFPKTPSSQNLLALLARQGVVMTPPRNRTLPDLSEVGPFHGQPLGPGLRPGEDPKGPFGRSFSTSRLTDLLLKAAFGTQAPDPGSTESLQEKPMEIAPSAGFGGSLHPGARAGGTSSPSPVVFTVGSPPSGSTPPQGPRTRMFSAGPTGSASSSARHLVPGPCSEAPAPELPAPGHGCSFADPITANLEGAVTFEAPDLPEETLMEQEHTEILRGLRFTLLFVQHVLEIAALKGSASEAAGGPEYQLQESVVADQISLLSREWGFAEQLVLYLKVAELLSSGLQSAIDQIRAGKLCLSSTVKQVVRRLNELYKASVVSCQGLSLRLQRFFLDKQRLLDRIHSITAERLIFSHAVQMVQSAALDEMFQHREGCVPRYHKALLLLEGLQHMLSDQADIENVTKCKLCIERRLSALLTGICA"}, "KIT(V559D)": {"biological_target": "KIT(V559D) (Homo sapiens, UniProt P10721, V559D)", "sequence (P10721 whole entry V559D)": "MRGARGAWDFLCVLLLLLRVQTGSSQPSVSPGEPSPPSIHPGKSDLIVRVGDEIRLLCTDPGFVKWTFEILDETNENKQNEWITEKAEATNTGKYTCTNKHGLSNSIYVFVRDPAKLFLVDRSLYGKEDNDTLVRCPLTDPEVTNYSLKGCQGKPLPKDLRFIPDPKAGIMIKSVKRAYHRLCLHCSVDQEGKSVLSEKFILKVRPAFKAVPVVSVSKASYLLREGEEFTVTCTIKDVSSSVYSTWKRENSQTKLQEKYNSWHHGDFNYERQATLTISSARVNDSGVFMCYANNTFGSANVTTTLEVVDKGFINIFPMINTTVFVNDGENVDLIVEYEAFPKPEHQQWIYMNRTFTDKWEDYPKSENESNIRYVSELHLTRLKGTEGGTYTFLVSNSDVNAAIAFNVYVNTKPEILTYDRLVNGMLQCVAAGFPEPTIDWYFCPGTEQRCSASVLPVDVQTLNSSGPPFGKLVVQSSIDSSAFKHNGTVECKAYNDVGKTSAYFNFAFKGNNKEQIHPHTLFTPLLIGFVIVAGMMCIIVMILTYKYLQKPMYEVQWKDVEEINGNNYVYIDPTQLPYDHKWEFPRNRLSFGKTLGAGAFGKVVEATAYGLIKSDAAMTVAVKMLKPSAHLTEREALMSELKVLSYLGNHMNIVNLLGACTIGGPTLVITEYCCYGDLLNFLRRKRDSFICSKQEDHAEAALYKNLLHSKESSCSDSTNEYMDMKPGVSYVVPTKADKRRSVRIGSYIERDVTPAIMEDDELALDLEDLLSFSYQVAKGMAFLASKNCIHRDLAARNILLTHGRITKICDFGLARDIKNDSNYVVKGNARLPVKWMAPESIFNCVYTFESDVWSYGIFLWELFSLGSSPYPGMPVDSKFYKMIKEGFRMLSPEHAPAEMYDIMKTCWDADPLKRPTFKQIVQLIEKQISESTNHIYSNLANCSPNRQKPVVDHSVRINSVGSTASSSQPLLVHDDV"}, "KIT(V559D,T670I)": {"biological_target": "KIT(V559D,T670I) (Homo sapiens, UniProt P10721, T670I/V559D)", "sequence (P10721 whole entry V559D/T670I)": "as the sequence (P10721 whole entry V559D) above, with T670I counted along it"}, "PRKCE": {"biological_target": "PRKCE (Homo sapiens, UniProt Q02156)", "sequence (Q02156 whole entry)": "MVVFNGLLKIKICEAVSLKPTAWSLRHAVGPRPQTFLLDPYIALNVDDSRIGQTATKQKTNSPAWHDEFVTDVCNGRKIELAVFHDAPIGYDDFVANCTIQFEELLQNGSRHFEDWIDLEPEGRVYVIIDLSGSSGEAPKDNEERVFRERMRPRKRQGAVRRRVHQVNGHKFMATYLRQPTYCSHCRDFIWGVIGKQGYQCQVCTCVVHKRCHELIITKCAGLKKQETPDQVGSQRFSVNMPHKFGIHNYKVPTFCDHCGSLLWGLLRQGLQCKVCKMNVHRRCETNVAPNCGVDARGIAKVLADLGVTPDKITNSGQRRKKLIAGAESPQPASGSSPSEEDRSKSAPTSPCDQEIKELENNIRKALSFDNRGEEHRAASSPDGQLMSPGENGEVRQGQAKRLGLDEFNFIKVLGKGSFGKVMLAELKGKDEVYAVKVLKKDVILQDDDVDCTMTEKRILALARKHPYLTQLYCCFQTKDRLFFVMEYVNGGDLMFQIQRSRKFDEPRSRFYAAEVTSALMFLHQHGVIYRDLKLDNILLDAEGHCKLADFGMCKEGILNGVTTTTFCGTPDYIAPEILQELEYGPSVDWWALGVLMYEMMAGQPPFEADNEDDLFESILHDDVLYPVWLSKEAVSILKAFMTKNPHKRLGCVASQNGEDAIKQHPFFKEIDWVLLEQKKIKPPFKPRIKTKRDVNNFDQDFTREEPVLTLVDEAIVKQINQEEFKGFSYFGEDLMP"}, "MLCK": {"biological_target": "T4, MLCK (Homo sapiens, UniProt Q32MK0)", "T4 construct": "gene MYLK3"}, "KIT(A829P)": {"biological_target": "KIT(A829P) (Homo sapiens, UniProt P10721, A829P)", "sequence (P10721 whole entry A829P)": "as the sequence (P10721 whole entry V559D) above, with D559V, A829P counted along it"}, "PRKG1": {"biological_target": "PRKG1 (Homo sapiens, UniProt Q13976)"}, "ZAK": {"biological_target": "T5, ZAK (Homo sapiens, UniProt Q9NYL2)", "T5 construct": "gene MAP3K20"}, "PIK3CA": {"biological_target": "PIK3CA (Homo sapiens, UniProt P42336)"}, "PLK1": {"biological_target": "PLK1 (Homo sapiens, UniProt P53350)", "sequence (P53350 whole entry)": "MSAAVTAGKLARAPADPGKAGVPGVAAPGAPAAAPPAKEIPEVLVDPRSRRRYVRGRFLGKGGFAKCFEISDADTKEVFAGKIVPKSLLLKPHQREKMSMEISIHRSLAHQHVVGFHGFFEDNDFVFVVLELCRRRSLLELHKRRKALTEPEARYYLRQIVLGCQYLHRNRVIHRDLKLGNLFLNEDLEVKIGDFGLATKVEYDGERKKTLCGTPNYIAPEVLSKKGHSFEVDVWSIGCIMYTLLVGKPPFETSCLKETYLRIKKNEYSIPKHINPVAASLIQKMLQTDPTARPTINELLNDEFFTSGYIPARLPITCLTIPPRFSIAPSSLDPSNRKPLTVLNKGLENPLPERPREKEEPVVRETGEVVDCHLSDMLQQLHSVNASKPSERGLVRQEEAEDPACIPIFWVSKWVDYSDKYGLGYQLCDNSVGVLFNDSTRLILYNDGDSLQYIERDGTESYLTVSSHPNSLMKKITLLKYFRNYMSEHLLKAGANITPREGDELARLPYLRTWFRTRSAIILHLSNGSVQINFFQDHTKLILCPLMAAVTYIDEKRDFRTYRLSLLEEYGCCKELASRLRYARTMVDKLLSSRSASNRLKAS"}, "DYRK1A": {"biological_target": "DYRK1A (Homo sapiens, UniProt Q13627)"}}}
{"compound": "COc1cc2c(cn1)N(C)C(=O)[C@@H](NC(=O)c1nc3n(n1)[C@H](c1ccccc1)CC3)CC2", "note": "[GNE684, (S)-N-((S)-7-methoxy-1-methyl-2-oxo-2,3,4,5-tetrahydro-1H-pyrido[3,4-b]azepin-3-yl)-5-phenyl-6,7-dihydro-5H-pyrrolo[1,2-b][1,2,4]triazole-2-carboxamide]", "values": [{"measurement": "remaining binding at 10 µM", "setting": "TIE2", "result": 92, "unit": "%"}, {"measurement": "remaining binding at 10 µM", "setting": "PIK3CB", "result": 100, "unit": "%"}, {"measurement": "remaining binding at 10 µM", "setting": "ABL1-nonphosphorylated", "result": 67, "unit": "%"}, {"measurement": "remaining binding at 10 µM", "setting": "BLK", "result": 49, "unit": "%"}, {"measurement": "remaining binding at 10 µM", "setting": "RET(M918T)", "result": 89, "unit": "%"}, {"measurement": "remaining binding at 10 µM", "setting": "LATS1", "result": 89, "unit": "%"}, {"measurement": "remaining binding at 10 µM", "setting": "ALK(L1196M)", "result": 78, "unit": "%"}, {"measurement": "remaining binding at 10 µM", "setting": "PIK3CA(E545A)", "result": 100, "unit": "%"}, {"measurement": "remaining binding at 10 µM", "setting": "YES", "result": 95, "unit": "%"}, {"measurement": "remaining binding at 10 µM", "setting": "LYN", "result": 94, "unit": "%"}, {"measurement": "remaining binding at 10 µM", "setting": "ULK1", "result": 98, "unit": "%"}, {"measurement": "remaining binding at 10 µM", "setting": "KIT(V559D)", "result": 100, "unit": "%"}, {"measurement": "remaining binding at 10 µM", "setting": "KIT(V559D,T670I)", "result": 100, "unit": "%"}, {"measurement": "remaining binding at 10 µM", "setting": "PRKCE", "result": 88, "unit": "%"}, {"measurement": "remaining binding at 10 µM", "setting": "MLCK", "result": 66, "unit": "%"}, {"measurement": "remaining binding at 10 µM", "setting": "KIT(A829P)", "result": 100, "unit": "%"}, {"measurement": "remaining binding at 10 µM", "setting": "PRKG1", "result": 81, "unit": "%"}, {"measurement": "remaining binding at 10 µM", "setting": "ZAK", "result": 99, "unit": "%"}, {"measurement": "remaining binding at 10 µM", "setting": "PIK3CA", "result": 100, "unit": "%"}, {"measurement": "remaining binding at 10 µM", "setting": "PLK1", "result": 79, "unit": "%"}, {"measurement": "remaining binding at 10 µM", "setting": "DYRK1A", "result": 79, "unit": "%"}]}
